Assay results published in patent US20040259244A1, “Methods, compositions, and growth and differentiation factors for insulin-producing cells” (priority 2002, published 2004).
Square brackets hold non-standard residues; d marks the D form. Ends that are not written are not given here. sY = N[C@@H](Cc1ccc(OS(=O)(=O)O)cc1)C(=O)O

These compounds were tested on conversion of stem cells into insulin producing cells. Settings: not given.
Assay type: cell-based

Compound | effect on the conversion of stem cells into insulin producing cells
Cholera Toxin B Subunit | potential positive effect

Same assay, conditions: statistical analysis of insulin content of supernatants, 3 donors, combinatorial array in alginate

Compound | effect on the conversion of stem cells into insulin producing cells
CC[C@H](C)[C@@H]1NC(=O)[C@H](CCCNC(=N)N)NC(=O)[C@H](CC(=O)O)NC(=O)[C@H](CCSC)NC(=O)[C@H](CCCNC(=N)N)NC(=O)CNC(=O)CNC(=O)[C@H](Cc2ccccc2)NC(=O)[C@@H](NC(=O)[C@H](CO)NC(=O)[C@H](CO)NC(=O)[C@H](CCCNC(=N)N)NC(=O)[C@H](CCCNC(=N)N)NC(=O)[C@H](CC(C)C)NC(=O)[C@@H](N)CO)CSSC[C@@H](C(=O)N[C@@H](CC(N)=O)C(=O)N[C@@H](CO)C(=O)N[C@@H](Cc2ccccc2)C(=O)N[C@@H](CCCNC(=N)N)C(=O)N[C@@H](Cc2ccc(O)cc2)C(=O)O)NC(=O)CNC(=O)[C@H](CC(C)C)NC(=O)CNC(=O)[C@H](CO)NC(=O)[C@H](CCC(N)=O)NC(=O)[C@H](C)NC(=O)CNC1=O [ANP] | potential negative effect
C[C@]12C[C@H](O)[C@H]3[C@@H](CCC4=CC(=O)CC[C@@]43C)[C@@H]1CC[C@@H]2C(=O)CO [Corticosterone] | potential positive effect
CCCCCC(=O)c1c(O)c(Cl)c(OC)c(Cl)c1O [DIF-1] | potential negative effect
CN(C)C=O [DMF, n-n-dimethylformamide] | potential positive effect
C[S+](C)[O-] [DMSO, dimethyl sulfoxide] | potential positive effect
NC(=O)c1cccnc1 [Nictotinamide, Nicotinamide] | potential positive effect
CC(=O)[C@H]1CC[C@H]2[C@@H]3CCC4=CC(=O)CC[C@]4(C)[C@H]3CC[C@]12C [Progesterone] | potential negative effect
NCCCCN [Putrescine] | potential negative effect
N[C@@H](Cc1cc(I)c(Oc2ccc(O)c(I)c2)c(I)c1)C(=O)O [T3, Triiodothyronine] | potential negative effect
Cc1c(C)c2c(c(C)c1O)CCC(C)(C(=O)O)O2 (stereo not drawn) [Trolox] | potential negative effect
CCCC(=O)[O-].[Na+] [n Butyric Acid] | potential negative effect
CCK8 amide: Cholecystokinin (CCK8-amide) (DYMGWMDF-NH2; ends and bridges not checked; UniProt P06307 96-103, looked up) | potential negative effect
CCK8 sulfated: Cholecystokinin octapeptide, sulfated (D[sY]MGWMDF-NH2; ends and bridges not checked; UniProt P06307 96-103, looked up) | potential positive effect
CNP: A 22-amino acid peptide that is a member of the natriuretic peptide family (GLSKGCFGLKLDRIGSMSGLGC; ends and bridges not checked; cysteine pairing not given here; UniProt P23582 105-126, looked up) | potential positive effect
Caerulein | potential positive effect
EGF: epidermal growth factor (NSDSECPLSHDGYCLHDGVCMYIEALDKYACNCVVGYIGERCQYRDLKWWELR; UniProt P01133 971-1023, looked up) | potential positive effect
Endothelin 1: polypeptide consisting of 21 amino acid residues (CSCSSLMDKECVYFCHLDIIW; ends and bridges not checked; cysteine pairing not given here; UniProt P05305 53-73, looked up) | potential negative effect
Exendin 4: a long acting analog of GLP-1 | potential positive effect
FGF-1: FGF acidic | potential positive effect

Compound | effect on the conversion of stem cells into insulin producing cells
FGF-2: fibroblast growth factor 2 (FGF-basic) | potential negative effect
GH: growth hormone | potential negative effect
GLP-1: Glucagon like-peptide 1, (7-36) amide, human (HAEGTFTSDVSSYLEGQAAKEFIAWLVKGR-NH2; UniProt P01275 98-127, looked up) | potential negative effect
GRP: Gastrin Releasing Peptide (VPLPAGGGTVLTKMYPRGNHWAVGHLM; ends and bridges not checked; UniProt P07492 24-50, looked up) | potential positive effect
HGF: hepatocyte growth factor | potential negative effect
IGF-1: Insulin-like growth factor-I | potential positive effect
IGF-2: Insulin-like growth factor 2 | potential positive effect
Insulin: Insulin as medium supplement | potential positive effect
LIF: leukemia inhibitory factor, human | potential negative effect
Laminin | potential positive effect
Leu-Enkephalin: Natural opiate pentapeptide (YGGFL) (Leu-enkephalin; UniProt P01210 230-234, looked up) | potential positive effect
Met-Enkephalin | potential positive effect
NGF beta: Nerve growth factor | potential positive effect
Substance P: neuropeptide, full length (RPKPQQFFGLM; ends and bridges not checked; UniProt P20366 58-68, looked up) | potential positive effect
TGF alpha: Transforming growth factor alpha | potential negative effect
TGF beta 1: Transforming growth factor beta 1 | potential negative effect
Transferrin: a beta globulin in blood plasma capable of combining with ferric ions | potential positive effect
VIP: Vasoactive Intestinal Peptide (HSDAVFTDNYTRLRKQMAVKKYLNSILN; ends and bridges not checked; UniProt P01282 125-152, looked up) | potential positive effect
vEGF | potential positive effect
